Experiments:
Format in all cases: cell-based
C-33 A = assay: Cancer cell line proliferation assay (CellTiter-Glo), C-33 A; conditions: Homo sapiens, 144 h, Cervical (squamous), L914Wfs*10 LATS2, 6 days
Procedure: (§1) All the cell lines are cultured in the media supplemented with 10-20% fetal bovine serum, in the temperature of 37° C., 5% CO2 and 95% humidity. The indicated cell lines (all sourced from the ATCC cell culture collection) are plated in 96-Well Flat Clear Bottom Black Polystyrene TC-Treated Microplates with the final cell density of 4×10^3 cells/well. Cells are incubated overnight and then compounds, dissolved in DMSO, are added in dose-response. Cells are incubated with compound dilutions for another 6 days. Cell viability is quantitated using CellTiter-Glo reagent (Perkin Elmer) and measured using an EnVision Multi Label Reader.

NCI-H226 = assay: Cancer cell line proliferation assay (CellTiter-Glo), NCI-H226; conditions: Homo sapiens, 144 h, Lung (mesothelioma), NF2 HOM DEL/LATS1 HOM DEL, 6 days
Procedure: as §1

RL95-2 = assay: Cancer cell line proliferation assay (CellTiter-Glo), RL95-2; conditions: Homo sapiens, 144 h, Endometrial (adeno-squamous), LATS1 HOM DEL, 6 days
Procedure: as §1

NCI-1H2052 = assay: Mesothelioma cell line proliferation assay, H2052 (ATPlite); conditions: Homo sapiens, NCI-H2052, 144 h, 6 days with compound, read-out: H2025 (EC50)
Summary of the method: (§2)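 H226 and H2052 mesothelioma cells, 1500 per well in RPMI with 10% FBS, attached overnight and then exposed to DMSO-dissolved compounds in dose-response for 6 days at 37 °C. Viability measured by ATPlite luminescence, converted to percent inhibition for EC50.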

Calu-1 = assay: Cancer cell line proliferation assay (CellTiter-Glo), Calu-1; conditions: Homo sapiens, 144 h, Lung (squamous), NF2 HOM DEL/LATS2 HOM DEL, 6 days
Procedure: as §1

[1] = system: selected tumor cell lines; assay: Cancer cell line proliferation assays, whole panel of selected tumor cell lines; conditions: cancer cell lines of Table 5
Procedure: as §1

NCI-1H226 = assay: Mesothelioma cell line proliferation assay, H226 (ATPlite); conditions: Homo sapiens, NCI-H226, 144 h, 6 days with compound
Summary of the method: as §2

Caov-3 = assay: Cancer cell line proliferation assay (CellTiter-Glo), Caov-3; conditions: Homo sapiens, 144 h, Ovary, LATS2 HOM DEL, 6 days
Procedure: as §1

GI50 (C-33 A): 100 nM
GI50 (NCI-H226): 40 nM
GI50 (RL95-2): 50 nM
GI50 (Calu-1): 120 nM
GI50 (Caov-3): 110 nM
Compound: C=CC(=O)NC1Cc2ccccc2N(c2ccc(C(F)(F)F)cc2)C1 (centres unmarked) [compound 001, N-(1-(4-(trifluoromethyl)phenyl)-1,2,3,4-tetrahydroquinolin-3-yl)acrylamide]
EC50 (NCI-1H2052): < 1000 nM
inhibitory activity on the cell proliferation of the selected tumor cell lines [1]: strong inhibitory activity
EC50 (NCI-1H226): < 1000 nM
